In assay [1] the test system is Bacillus subtilis. As to the kind of experiment: Region of growth-inhibition around treated cotton cloth (Example 26). Type of assay: cell-based. As to conditions: emulsifiable concentrate diluted 100 times. The method, boiled down: (§1)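 Cotton cloth soaked 2 min in a 100-fold water dilution of the emulsifiable concentrate, air-dried, cut into 1 cm squares and placed on inoculated potato-agar plates. After 4 days at 28 °C, width of the growth-inhibition zone around the cloth was measured.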

The test system of a further assay is Staphylococcus oureus. Described as above. Type of assay: cell-based. The note with it: emulsifiable concentrate diluted 100 times. In outline: as §1
The test system of assay [2] is Penicillium Citrinum. The description is as above. Type of assay: cell-based. As to conditions: emulsifiable concentrate diluted 100 times. In outline: as §1
The subject of assay [3] is Aspergillus niger. The description is as above. Type of assay: cell-based. As to conditions: emulsifiable concentrate diluted 100 times. The method, boiled down:
as §1

Assay [4] deals with Aspergillus niger, Penicillium citrinum, Cladosporium harbarum and chaetomium globosum. As to the kind of experiment: Degree of growth inhibition of fungi on treated beach plates (Example 25). Type of assay: cell-based. Also noted: scale not given here. The note with it: numerical rating, 2 weeks. The method, boiled down:
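Beech plates 5 cm square and 5 mm thick were dipped for 2 min in emulsifiable concentrate diluted 400- and 800-fold in water, then dried 24 h at room temperature. Plates were set on agar, sprayed with fungal spore suspensions and incubated 2 weeks at 28 °C and 95% humidity; growth inhibition was scored on a numerical rating.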

The subject of assay [5] is fungi in the paints or the cutting oil. As to the kind of experiment: Growth of fungi in paints or cutting oil (Example 11). The note with it: oil soluble concentrate, 0.1%. The procedure:
The above ingredients were mixed. An oil soluble concentrate was obtained. In the form of the oil soluble concentrate, Compound No. 1 was added to paints or the cutting oil in an amount of 0.1%.

The test system of assay [6] is Bacillus subtilis. As to the kind of experiment: Minimum inhibitory concentration, dilution methods (Example 14). Type of assay: cell-based. The note with it: Bacillus subtilis. The source says: (§2) Bacteriocidal activity and fungicidal activity of the active compounds of the present invention were examined by potato-dextrose agar dilution method, [2] waxman's liquid medium dilution method or [3] glucose bouillon medium dilution method. The results are shown in Table 4 below as the minimum inhibitory concentration (the minimum concentration of active compound found to produce 100% control of the test bacteria and fungi).

The test system of assay [7] is Aspergillus niger. The assay is described as above. Type of assay: cell-based.
Description: as §2

The next assay concerns Cladosporium harbarum. The description is as above. Type of assay: cell-based. The note with it: for minimum inhibitory concentration: (1) potato-dextrose agar dilution method.
Description: as §2

The subject of assay [8] is Bacillus subtilis. As to the kind of experiment: Growth inhibition zone around treated cotton cloth (Example 18). Type of assay: cell-based. The note with it: emulsifiable concentrate diluted 1000 times. The procedure:
(§3) The emulsifiable concentrates which were prepared by Example 10 were diluted with water 1000 times to form an emulsion. A cloth of cotton was soaked into each emulsion for 2 minutes. The clothes were dried at room temperature and cut into a square of which a side was 1 cm long. Each kind of test bacteria and fungi was inoculated, separately on plates of potato-agar and one square cloth was placed on each of such plates. Test bacteria and fungi were cultivated at 28° C for 4 days. The width of the region of growth-inhibition which was formed a circumference of the cloth was examined.

Assay [9] deals with Penicillium Citrinum. The assay is described as above. Type of assay: cell-based. As to conditions: emulsifiable concentrate diluted 1000 times. As to the method:
as §3

Assay [10] concerns Aspergillus niger. The assay is described as above. Type of assay: cell-based. As to conditions: emulsifiable concentrate diluted 1000 times. The procedure: as §3
For the next assay, the system named is Staphylococcus aureus. The assay is described as above. Type of assay: cell-based. The note with it: emulsifiable concentrate diluted 1000 times. The procedure:
as §3

For assay [11], the system named is Aspergillus niger, Penicillium citrinum, Cladosporium harbarum and chaetomium globosum. As to the kind of experiment: Degree of growth inhibition of fungi on treated beach plates (Example 17). Type of assay: cell-based. Also noted: scale not given here. As to conditions: numerical rating, 2 weeks. In outline:
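Beech plates were dipped for 2 minutes in emulsifiable concentrate diluted 400- and 800-fold in water, then dried for 24 hours. They were laid on agar and sprayed with spores of each fungus, then incubated at 95% humidity and 28° C for 2 weeks. Growth inhibition was scored on a numerical rating scale.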

Assay [12] has as its system bacteria gathered from circular water system. As to the kind of experiment: Degree of propagation on slime test boards (Example 19). Type of assay: cell-based. Also noted: key: -: no propagation; +: the area of propagation is 1 - 25% on the slime test boards.; ++: the area of propagation is 26 - 50% on the slime test boards.; +++: the area of propagation is 51 - 75% on the slime test boards.; ++++: the area of propagation is 76 - 100% on the slime test boards. As to the method: (§4) Zero point zero two (0.02) part of active compounds in the form of 10% water soluble concentrate which was prepared by Example 13 was added into 100 parts of Waxman's liquid medium. Pieces of wood and iron (hereafter referred to as the slime test boards) were soaked into the Waxman's liquid medium. The bacteria which were gathered from circular water system were inoculated upon the Waxman's liquid medium and incubated at 27° C-34° C by shaking culture. The degree of propagation of the bacteria on the slime test boards was examined.
(§5) The growth-inhibiting activity of active compounds against the fungi and the green algae was also examined by the same method as mentioned above.
(§6) The degree of propagation of the bacteria, fungi or green algae on the slime test boards is defined in terms of the following symbols.

The next assay has as its system fungi. The description is as above. Also noted: key: -: no propagation; +: the area of propagation is 1 - 25% on the slime test boards.; ++: the area of propagation is 26 - 50% on the slime test boards.; +++: the area of propagation is 51 - 75% on the slime test boards.; ++++: the area of propagation is 76 - 100% on the slime test boards. Type of assay: cell-based. As to the method:
as §4, §5, §6

The test system of a further assay is green algae. The description is as above. Type of assay: cell-based. Also noted: key: -: no propagation; +: the area of propagation is 1 - 25% on the slime test boards.; ++: the area of propagation is 26 - 50% on the slime test boards.; +++: the area of propagation is 51 - 75% on the slime test boards.; ++++: the area of propagation is 76 - 100% on the slime test boards. The procedure: as §4, §5, §6

The mark [13] stands for this setting: (1) potato-dextrose agar dilution method.
The mark [14] stands for this setting: (2) waxman's liquid medium dilution method.

≈ marks a conversion by molar mass, not a printed value. Counter-ions that a name gives are not always drawn.

With `CC(=O)Oc1ccccc1C(=O)NC=C(Cl)Cl` [Compound No. 6, O-acetyl-N-(2,2-dichlorovinyl) salicylamide], the “width of the region of growth-inhibition” value turned out to be 9 mm in the assay on Bacillus subtilis [1], 7 mm in the assay with Staphylococcus oureus, 7 mm in the assay with Penicillium Citrinum [2] and 5 mm with Aspergillus niger [3]. The “Degree of growth inhibition” value in [4] (0.0125 %) and in assay [4] (0.025 %) was 3 in each case.
In the case of `O=C(NC=C(Cl)Cl)c1ccccc1O` [Compound No. 1, N-(β,β-dichlorovinyl) salicylamide], the “growth of fungi in the paints or the cutting oil” value in [5] is recorded as “controlled”. The MIC stood at 2.5 µg/mL (≈ 10.8 µM) in the assay on Bacillus subtilis [6] (setting [13]); 5 µg/mL (≈ 21.5 µM) against Bacillus subtilis [6] (setting [14]); 10 µg/mL (≈ 43.1 µM) in the assay with Aspergillus niger [7] (Aspergillus niger, (1) potato-dextrose agar dilution method); 5 µg/mL (≈ 21.5 µM) in the assay on Cladosporium harbarum (Cladosporium, (2) waxman's liquid medium dilution method). In addition, the minimum inhibitory concentration with Aspergillus niger [7] (setting [14]) and with Cladosporium harbarum was 10 mc g/ml in each case.
Compound `O=C(NC=C(Cl)Cl)c1ccccc1O` [Compound No. 20, sodium salt of N-(β,β-dichlorovinyl) salicylamide] returned a minimum inhibitory concentration (MIC) in the assay with Bacillus subtilis [6] ((3) glucose bouillon medium dilution method) of 5 µg/mL. The minimum inhibitory concentration in the assay on Aspergillus niger [7] (setting [13]) is 10 mc g/ml; with Cladosporium harbarum it was 2.5 mc g/ml. Also, the “width of the growth inhibition zone” value in the assay on Bacillus subtilis [8] was 8 mm; in the assay on Penicillium Citrinum [9] it was 7 mm; with Aspergillus niger [10], 6 mm; in the assay with Staphylococcus aureus, 7 mm. The “Degree of growth inhibition” value in assay [11] (0.0125 %) and in [11] (0.025 %) was 3 each time. Moreover, the Degree of propagation result (in assay [12] (7th day); in [12] (14th day); in assay [12] (21st day); with fungi (7th day); in the assay with fungi (14th day); in the assay on fungi (21st day)) was “-” each time. The Degree of propagation entry with green algae (7th day), in the assay with green algae (14th day) and with green algae (21st day) was “-” each time.

These data come from US4055640A, “Compositions and methods for controlling the growth of bacteria, fungi and algae using certain derivatives of N-(2,2-dichlorovinyl)salicylamides” (Nippon Kayaku Co., Ltd., priority 1975, dated 1977).
